Measured values as given in patent US20250214942A1, “INHIBITORS OF RECEPTOR INTERACTING PROTEIN KINASE I FOR THE TREATMENT OF DISEASE” (Board of Regents, The University of Texas System, priority 2019, published 2025).
Where two headings read alike, the source gives them in different places.

How the values were obtained:
[1] = system: human monocytic cell line U937; test: Human U937 cellular necroptosis assay (TNFalpha + z-VAD-FMK, Cell Titer-Glo viability); assay type: cell-based; conditions: U937 cells, 25 ng/mL human TNFalpha + 25 μM z-VAD-FMK, read-out: hU937 Avg IC50
Outline: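 Cells resuspended in phenol red-free RPMI with 10% FBS, stimulated with 25 ng/mL human TNFalpha plus 25 μM z-VAD-FMK, then given serially diluted compound for 22 h at 37° C, 5% CO2. Viability by Cell Titer-Glo 2.0 luminescence; IC50 from four-parameter logistic fit, averaged across runs.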

RIPK1 = RIPK1 (Homo sapiens (Human), UniProt Q13546); test: ADP-Glo kinase assay (RIPK1 activity, conversion of ATP to ADP); assay type: biochemical; conditions: for IC50: 5 nM RIPK1, 50 μM ATP, 6 h reaction, read-out: RIPK1 Enzyme Avg IC50
Chain of RIPK1 (Q13546 1-327): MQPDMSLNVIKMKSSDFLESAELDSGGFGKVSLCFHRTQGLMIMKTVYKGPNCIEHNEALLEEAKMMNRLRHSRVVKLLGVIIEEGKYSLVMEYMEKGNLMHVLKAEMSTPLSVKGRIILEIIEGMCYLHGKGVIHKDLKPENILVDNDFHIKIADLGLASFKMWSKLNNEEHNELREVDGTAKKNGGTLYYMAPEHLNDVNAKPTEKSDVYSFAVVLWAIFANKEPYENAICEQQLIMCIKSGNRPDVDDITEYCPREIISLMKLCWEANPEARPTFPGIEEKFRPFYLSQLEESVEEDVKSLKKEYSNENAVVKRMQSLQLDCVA
Outline: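 ADP-Glo luminescence of ATP-to-ADP conversion by 5 nM RIPK1 with 50 μM ATP (final), 6 h reaction after 10 min compound preincubation at rt. Buffer was 50 mM HEPES pH 7.5, 30 mM MgCl2, 0.05% BSA, 0.02% CHAPS. IC50 from four-parameter logistic fit.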

Compound	IC50 ([1]; Homo sapiens, U-937, 22 h)	IC50 (RIPK1)	IC50 ([1]; 22 h)	observed potency relative to the other enantiomer (RIPK1; enantiomers separated by SFC, assay not named)
O=C(N1N=CCC1c1cc(F)cc(F)c1)C12CC(Cn3ccn4nccc34)(C1)C2 (centres unmarked) [Example 158, (3-((1H-imidazo[1,2-b]-pyrazol-1-yl)methyl)-bicyclo[1.1.1]pentan-1-yl)(5-(3,5-difluorophenyl)-4,5-dihydro-1H-pyrazol-1-yl)methanone]	62 nM	24 nM	–	–
O=C(N1N=CCC1c1cc(F)cc(F)c1)C12CC(CF)(C1)C2 (centres unmarked) [Example 5, (5-(3,5-Difluorophenyl)-4,5-dihydro-1H-pyrazol-1-yl)(3-(fluoromethyl)-bicyclo[1.1.1]pentan-1-yl)methanone]	20 nM	17 nM	–	–
N#Cc1cccc(C2CC=NN2C(=O)C23CC(Cn4ncc5c(F)cccc54)(C2)C3)c1 (centres unmarked) [Example 82, 3-(1-(3-((4-fluoro-1H-indazol-1-yl)methyl)bicyclo-[1.1.1]pentane-1-carbonyl)-4,5-dihydro-1H-pyrazol-5-yl)benzonitrile]	31 nM	11 nM	–	–
COc1ccnc(OCC23CC(C(=O)N4N=CCC4c4cc(F)cc(F)c4)(C2)C3)n1 (centres unmarked) [Example 327, (5-(3,5-difluorophenyl)-4,5-dihydro-1H-pyrazol-1-yl)(3-(((4-methoxypyrimidin-2-yl)oxy)methyl)bicyclo[1.1.1]-pentan-1-yl)methanone]	381 nM	75 nM	–	–
N#Cc1ccc2c(cnn2CC23CC(C(=O)N4N=CCC4c4cnccn4)(C2)C3)c1 (centres unmarked) [Example 51, 1-((3-(5-(pyrazin-2-yl)-4,5-dihydro-1H-pyrazole-1-carbonyl)bicyclo[1.1.1]pentan-1-yl)methyl)-1H-indazole-5-carbonitrile]	40 nM	22 nM	–	–
O=C(N1CC(F)CC1c1cccc(F)c1)C12CC(COc3cc(Br)ncn3)(C1)C2 (centres unmarked) [Example 28, (3-(((6-Bromopyrimidin-4-yl)oxy)methyl)bicyclo[1.1.1]pentan-1-yl)(4-fluoro-2-(3-fluorophenyl)pyrrolidin-1-yl)methanone]	193 nM	32 nM	–	–
O=C(N1N=CCC1c1cc(F)cc(F)c1)C12CC(Cn3nc4ccccc4c3Cl)(C1)C2 (centres unmarked) [Example 140, (3-((3-chloro-2H-indazol-2-yl)methyl)bicyclo[1.1.1]-pentan-1-yl)(5-(3,5-difluorophenyl)-4,5-dihydro-1H-pyrazol-1-yl)methanone]	53 nM	49 nM	–	–
Cc1cnn(CC23CC(C(=O)N4N=CCC4c4cc(F)cc(F)c4)(C2)C3)c1C#N (centres unmarked) [Example 156, 1-((3-(5-(3,5-difluorophenyl)-4,5-dihydro-1H-pyrazole-1-carbonyl)bicyclo[1.1.1]-pentan-1-yl)methyl)-4-methyl-1H-pyrazole-5-carbonitrile]	159 nM	38 nM	–	–
Cn1cc(-c2cc(OCC34CC(C(=O)N5CC(F)CC5c5cccc(F)c5)(C3)C4)ncn2)cn1 (single isomer, unassigned) [Example 30, (4-Fluoro-2-(3-fluorophenyl)pyrrolidin-1-yl)(3-(((6-(1-methyl-1H-pyrazol-4-yl)pyrimidin-4-yl)oxy)methyl)bicyclo[1.1.1]pentan-1-yl)methanone]	–	124 nM	708 nM	–
N#Cc1cnc2ncn(CC34CC(C(=O)N5N=CCC5c5cc(F)cc(F)c5)(C3)C4)c2c1 (centres unmarked) [Example 184, 1-((3-(5-(3,5-difluorophenyl)-4,5-dihydro-1H-pyrazole-1-carbonyl)bicyclo[1.1.1]-pentan-1-yl)methyl)-1H-imidazo[4,5-b]pyridine-6-carbonitrile or 3-((3-(5-(3,5-difluorophenyl)-4,5-dihydro-1H-pyrazole-1-carbonyl)bicyclo[1.1.1]pentan-1-yl)methyl)-3H-imidazo[4,5-b]pyridine-6-carbonitrile]	–	136 nM	1240 nM	–
O=C(N1N=CCC1c1cc(F)cc(F)c1)C12CC(Cn3ncc4cccc(Cl)c43)(C1)C2 (centres unmarked) [Example 69, (3-((7-chloro-1H-indazol-1-yl)methyl)bicyclo[1.1.1]-pentan-1-yl)(5-(3,5-difluoro-phenyl)-4,5-dihydro-1H-pyrazol-1-yl)methanone]	44 nM	22 nM	–	–
O=C(N1N=CCC1c1cc(F)cc(F)c1)C12CC(COc3ccc(Br)cc3F)(C1)C2 (centres unmarked) [Example 331, (3-((4-bromo-2-fluoro-phenoxy)methyl)bicyclo-[1.1.1]pentan-1-yl)(5-(3,5-difluorophenyl)-4,5-dihydro-1H-pyrazol-1-yl)methanone]	28 nM	13 nM	–	–
O=C(N1N=CCC1c1cc(F)cc(F)c1)C12CC(COc3ccc(Br)cc3Cl)(C1)C2 (centres unmarked) [Example 330, (3-((4-bromo-2-chloro-phenoxy)methyl)bicyclo-[1.1.1]pentan-1-yl)(5-(3,5-difluorophenyl)-4,5-dihydro-1H-pyrazol-1-yl)methanone]	21 nM	11 nM	–	–
O=C(N1N=CCC1c1cc(F)cc(F)c1)C12CC(Cn3cc(F)c4ncc(F)cc43)(C1)C2 (centres unmarked) [Example 161, (3-((3,6-difluoro-1H-pyrrolo-[3,2-b]pyridin-1-yl)methyl)-bicyclo[1.1.1]pentan-1-yl)(5-(3,5-difluorophenyl)-4,5-dihydro-1H-pyrazol-1-yl)methanone]	157 nM	50 nM	–	–
N#Cc1ccc2c(cnn2CC23CC(C(=O)N4N=CCC4c4cncc(F)c4)(C2)C3)c1 (centres unmarked) [Example 128, 1-((3-(5-(5-fluoropyridin-3-yl)-4,5-dihydro-1H-pyrazole-1-carbonyl)bicyclo[1.1.1]-pentan-1-yl)methyl)-1H-indazole-5-carbonitrile]	48 nM	17 nM	–	–
1-((3-(5-(3,5-difluorophenyl)-4,5-dihydro-1H-pyrazole-1-carbonyl)bicyclo[1.1.1]-pentan-1-yl)methyl)-1H-benzo[d]imidazole-6-carbonitrile and 1-((3-(5-(3,5-difluorophenyl)-4,5-dihydro-1H-pyrazole-1-carbonyl)bicyclo[1.1.1]-pentan-1-yl)methyl)-1H-benzo[d]imidazole-5-carbonitrile [Example 186]	–	113 nM	682 nM	–
N#Cc1cc2cn(CC34CC(C(=O)N5N=CCC5c5cc(F)cc(F)c5)(C3)C4)nc2cn1 (centres unmarked) [Example 219, 2-((3-(5-(3,5-difluorophenyl)-4,5-dihydro-1H-pyrazole-1-carbonyl)bicyclo[1.1.1]pentan-1-yl)methyl)-2H-pyrazolo[3,4-c]pyridine-5-carbonitrile]	292 nM	47 nM	–	–
N#Cc1cnc(OCC23CC(C(=O)N4N=CCC4c4cc(F)cc(F)c4)(C2)C3)cn1 (centres unmarked) [Example 199, 5-((3-(5-(3,5-difluorophenyl)-4,5-dihydro-1H-pyrazole-1-carbonyl)bicyclo[1.1.1]pentan-1-yl)methoxy)pyrazine-2-carbonitrile]	9.3 nM	8.3 nM	–	–
N#Cc1ccc2c(cnn2CC23CC(C(=O)N4N=CCC4c4ccc5nccn5c4)(C2)C3)c1 (centres unmarked) [Example 258, 1-((3-(5-(imidazo[1,2-a]-pyridin-6-yl)-4,5-dihydro-1H-pyrazole-1-carbonyl)bicyclo-[1.1.1]pentan-1-yl)methyl)-1H-indazole-5-carbonitrile]	3820 nM	1010 nM	–	–
O=C(N1N=CCC1c1cc(F)cc(F)c1)C12CC(C(F)c3cccc(Cl)c3)(C1)C2 (centres unmarked) [Example 42, (3-((3-chlorophenyl)fluoromethyl)bicyclo[1.1.1]pentan-1-yl)(5-(3,5-difluorophenyl)-4,5-dihydro-1H-pyrazol-1-yl)methanone]	51 nM	31 nM	–	–
COc1ccc2cn(CC34CC(C(=O)N5N=CCC5c5cc(F)cc(F)c5)(C3)C4)nc2c1 (centres unmarked) [Example 57, (5-(3,5-difluorophenyl)-4,5-dihydro-1H-pyrazol-1-yl)(3-((6-methoxy-2H-indazol-2-yl)methyl)bicyclo[1.1.1]-pentan-1-yl)methanone]	110 nM	32 nM	–	–
O=C(N1N=CCC1c1cc(F)cc(F)c1)C12CC(Cn3cc(-c4cnccn4)cn3)(C1)C2 (centres unmarked) [Example 112, (5-(3,5-difluorophenyl)-4,5-dihydro-1H-pyrazol-1-yl)(3-((4-(pyrazin-2-yl)-1H-pyrazol-1-yl)methyl)-bicyclo[1.1.1]pentan-1-yl)-methanone]	285 nM	73 nM	–	–
N#Cc1cnc(OCC23CC(C(=O)N4N=CC[C@H]4c4cc(F)cc(F)c4)(C2)C3)cn1 [Example 201, (S)-5-((3-(5-(3,5-difluorophenyl)-4,5-dihydro-1H-pyrazole-1-carbonyl)bicyclo[1.1.1]pentan-1-yl)methoxy)pyrazine-2-carbonitrile]	7.1 nM	–	–	more potent isomer
N#Cc1cc(OCC23CC(C(=O)N4N=CCC4c4cc(F)cc(F)c4)(C2)C3)ncn1 (centres unmarked) [Example 9, 6-((3-(5-(3,5-Difluorophenyl)-4,5-dihydro-1H-pyrazole-1-carbonyl)bicyclo[1.1.1]pentan-1-yl)methoxy)pyrimidine-4-carbonitrile]	62 nM	16 nM	–	–
O=C(N1N=CCC1c1cc(F)cc(F)c1)C12CC(Cn3cnc4ncccc43)(C1)C2 (centres unmarked) [Example 193, (3-((1H-imidazo[4,5-b]-pyridin-1-yl)methyl)-bicyclo[1.1.1]pentan-1-yl)(5-(3,5-difluorophenyl)-4,5-dihydro-1H-pyrazol-1-yl)methanone and (3-((3H-imidazol[4,5-b]pyridin-3-yl)methyl)-bicyclo[1.1.1]pentan-1-yl)(5-(3,5-difluorophenyl)-4,5-dihydro-1H-pyrazol-1-yl)methanone]	–	292 nM	1390 nM	–
